{
  "source": "patent US10370333B2",
  "about": "(Sanford Burnham Prebys Medical Discovery Institute, priority 2012, dated 2019)",
  "data": [
    {"molecular_target": "TNAP (Homo sapiens (Human), UniProt P05186)", "test": "TNAP (PPi) inhibition assay, pyrophosphate as substrate", "assay_type": "biochemical", "outline": "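Secreted epitope-tagged human TNAP from transiently transfected COS-1 cells, dialyzed to remove phosphate. Inhibitors tested kinetically at pH 7.4 with PPi as substrate; released phosphate quantified colorimetrically with Biomol Green reagent.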", "units": {"IC50": "nM"}, "values": [
      {"smiles": "COc1ccc(Br)cc1S(=O)(=O)Nc1cncc(-c2ccco2)c1", "note": "[Example III-68, 5-Bromo-N-(5-(furan-2-yl)pyridin-3-yl)-2-methoxybenzenesulfonamide]", "IC50": "< 100"},
      {"smiles": "COc1ccc(Cl)cc1S(=O)(=O)Nc1cncc(-c2ccco2)c1", "note": "[Example III-69, 5-Chloro-N-(5-(furan-2-yl)pyridin-3-yl)-2-methoxybenzenesulfonamide]", "IC50": "< 100"},
      {"smiles": "COc1ccc(OC)c(S(=O)(=O)Nc2cncc(-c3ccoc3)c2)c1", "note": "[Example III-70, N-(5-(Furan-3-yl)pyridin-3-yl)-2,5-dimethoxybenzenesulfonamide]", "IC50": "< 100"},
      {"smiles": "COc1ccc(Br)cc1S(=O)(=O)Nc1cncc(-c2ccoc2)c1", "note": "[Example III-71, 5-Bromo-N-(5-(furan-3-yl)pyridin-3-yl)-2-methoxybenzenesulfonamide]", "IC50": "< 100"},
      {"smiles": "COc1ccc(Cl)cc1S(=O)(=O)Nc1cncc(-c2ccoc2)c1", "note": "[Example III-72, 5-Chloro-N-(5-(furan-3-yl)pyridin-3-yl)-2-methoxybenzenesulfonamide]", "IC50": "< 100"},
      {"smiles": "COc1ccc(OC)c(S(=O)(=O)Nc2cncc(-c3cccs3)c2)c1", "note": "[Example III-73, 2,5-Dimethoxy-N-(5-(thiophen-2-yl)pyridin-3-yl)benzenesulfonamide]", "IC50": "< 100"},
      {"smiles": "COc1ccc(Br)cc1S(=O)(=O)Nc1cncc(-c2cccs2)c1", "note": "[Example III-74, 5-Bromo-2-methoxy-N-(5-(thiophen-2-yl)pyridin-3-yl)benzenesulfonamide]", "IC50": "< 100"},
      {"smiles": "COc1ccc(Cl)cc1S(=O)(=O)Nc1cncc(-c2cccs2)c1", "note": "[Example III-75, 5-Chloro-2-methoxy-N-(5-(thiophen-2-yl)pyridin-3-yl)benzenesulfonamide]", "IC50": "< 100"},
      {"smiles": "COc1ccc(OC)c(S(=O)(=O)Nc2cncc(-c3ccsc3)c2)c1", "note": "[Example III-76, 2,5-Dimethoxy-N-(5-(thiophen-3-yl)pyridin-3-yl)benzenesulfonamide]", "IC50": "< 100"},
      {"smiles": "COc1ccc(Br)cc1S(=O)(=O)Nc1cncc(-c2ccsc2)c1", "note": "[Example III-77, 5-Bromo-2-methoxy-N-(5-(thiophen-3-yl)pyridin-3-yl)benzenesulfonamide]", "IC50": "< 100"},
      {"smiles": "COc1ccc(Cl)cc1S(=O)(=O)Nc1cncc(-c2ccsc2)c1", "note": "[Example III-78, 5-Chloro-2-methoxy-N-(5-(thiophen-3-yl)pyridin-3-yl)benzenesulfonamide]", "IC50": "< 100"},
      {"smiles": "COc1ccc(OC)c(S(=O)(=O)Nc2cncc(-c3nccs3)c2)c1", "note": "[Example III-79, 2,5-Dimethoxy-N-(5-(thiazol-2-yl)pyridin-3-yl)benzenesulfonamide]", "IC50": "< 100"},
      {"smiles": "COc1ccc(Br)cc1S(=O)(=O)Nc1cncc(-c2nccs2)c1", "note": "[Example III-80, 5-Bromo-2-methoxy-N-(5-(thiazol-2-yl)pyridin-3-yl)benzenesulfonamide]", "IC50": "< 100"},
      {"smiles": "COc1ccc(Cl)cc1S(=O)(=O)Nc1cncc(-c2nccs2)c1", "note": "[Example III-81, 5-Chloro-2-methoxy-N-(5-(thiazol-2-yl)pyridin-3-yl)benzenesulfonamide]", "IC50": "< 100"},
      {"smiles": "COc1ccc(OC)c(S(=O)(=O)Nc2cncc(-c3cncs3)c2)c1", "note": "[Example III-82, 2,5-Dimethoxy-N-(5-(thiazol-5-yl)pyridin-3-yl)benzenesulfonamide]", "IC50": "< 100"},
      {"smiles": "COc1ccc(Br)cc1S(=O)(=O)Nc1cncc(-c2cncs2)c1", "note": "[Example III-83, 5-Bromo-2-methoxy-N-(5-(thiazol-5-yl)pyridin-3-yl)benzenesulfonamide]", "IC50": "< 100"},
      {"smiles": "COc1ccc(Cl)cc1S(=O)(=O)Nc1cncc(-c2cncs2)c1", "note": "[Example III-84, 5-Chloro-2-methoxy-N-(5-(thiazol-5-yl)pyridin-3-yl)benzenesulfonamide]", "IC50": "< 100"},
      {"smiles": "COc1ccc(OC)c(S(=O)(=O)Nc2cncc(-c3cscn3)c2)c1", "note": "[Example III-85, 2,5-Dimethoxy-N-(5-(thiazol-4-yl)pyridin-3-yl)benzenesulfonamide]", "IC50": "< 100"},
      {"smiles": "COc1ccc(Br)cc1S(=O)(=O)Nc1cncc(-c2cscn2)c1", "note": "[Example III-86, 5-Bromo-2-methoxy-N-(5-(thiazol-4-yl)pyridin-3-yl)benzenesulfonamide]", "IC50": "< 100"},
      {"smiles": "COc1ccc(Cl)cc1S(=O)(=O)Nc1cncc(-c2cscn2)c1", "note": "[Example III-87, 5-Chloro-2-methoxy-N-(5-(thiazol-4-yl)pyridin-3-yl)benzenesulfonamide]", "IC50": "< 100"},
      {"smiles": "COc1ccc(OC)c(S(=O)(=O)Nc2cncc(-c3cnn(C)c3)c2)c1", "note": "[Example III-88, 2,5-Dimethoxy-N-(5-(1-methyl-1H-pyrazol-4-yl)pyridin-3-yl)benzenesulfonamide]", "IC50": "< 100"},
      {"smiles": "COc1ccc(Br)cc1S(=O)(=O)Nc1cncc(-c2cnn(C)c2)c1", "note": "[Example III-89, 5-Bromo-2-methoxy-N-(5-(1-methyl-1H-pyrazol-4-yl)pyridin-3-yl)benzenesulfonamide]", "IC50": "< 100"},
      {"smiles": "COc1ccc(Cl)cc1S(=O)(=O)Nc1cncc(-c2cnn(C)c2)c1", "note": "[Example III-90, 5-Chloro-2-methoxy-N-(5-(1-methyl-1H-pyrazol-4-yl)pyridin-3-yl)benzenesulfonamide]", "IC50": "< 100"},
      {"smiles": "COc1ccc(OC)c(S(=O)(=O)Nc2cncc(-c3ncccn3)c2)c1", "note": "[Example III-91, 2,5-Dimethoxy-N-(5-(pyrimidin-2-yl)pyridin-3-yl)benzenesulfonamide]", "IC50": "100 to 1000"},
      {"smiles": "COc1ccc(Br)cc1S(=O)(=O)Nc1cncc(-c2ncccn2)c1", "note": "[Example III-92, 5-Bromo-2-methoxy-N-(5-(pyrimidin-2-yl)pyridin-3-yl)benzenesulfonamide]", "IC50": "< 100"},
      {"smiles": "COc1ccc(Cl)cc1S(=O)(=O)Nc1cncc(-c2ncccn2)c1", "note": "[Example III-93, 5-Chloro-2-methoxy-N-(5-(pyrimidin-2-yl)pyridin-3-yl)benzenesulfonamide]", "IC50": "< 100"},
      {"smiles": "COc1ccc(OC)c(S(=O)(=O)Nc2cncc(-c3cnccn3)c2)c1", "note": "[Example III-94, 2,5-Dimethoxy-N-(5-(pyrazin-2-yl)pyridin-3-yl)benzenesulfonamide]", "IC50": "< 100"},
      {"smiles": "COc1ccc(Br)cc1S(=O)(=O)Nc1cncc(-c2cnccn2)c1", "note": "[Example III-95, 5-Bromo-2-methoxy-N-(5-(pyrazin-2-yl)pyridin-3-yl)benzenesulfonamide]", "IC50": "< 100"},
      {"smiles": "COc1ccc(Cl)cc1S(=O)(=O)Nc1cncc(-c2cnccn2)c1", "note": "[Example III-96, 5-Chloro-2-methoxy-N-(5-(pyrazin-2-yl)pyridin-3-yl)benzenesulfonamide]", "IC50": "< 100"},
      {"smiles": "COC(=O)c1cncc(NS(=O)(=O)c2cc(Br)ccc2OC)c1", "note": "[Example IV-1, Methyl 5-(5-bromo-2-methoxyphenylsulfonamido)nicotinate]", "IC50": "< 100"},
      {"smiles": "CCOC(=O)c1cncc(NS(=O)(=O)c2cc(Br)ccc2OC)c1", "note": "[Example IV-2, Ethyl 5-(5-bromo-2-methoxyphenylsulfonamido)nicotinate]", "IC50": "< 100"},
      {"smiles": "CCCOC(=O)c1cncc(NS(=O)(=O)c2cc(Br)ccc2OC)c1", "note": "[Example IV-3, Propyl 5-(5-bromo-2-methoxyphenylsulfonamido)nicotinate]", "IC50": "< 100"},
      {"smiles": "COc1ccc(Br)cc1S(=O)(=O)Nc1cncc(C(=O)OC2CCCCC2)c1", "note": "[Example IV-4, Cyclohexyl 5-(5-bromo-2-methoxyphenylsulfonamido)nicotinate]", "IC50": "< 100"},
      {"smiles": "COc1ccc(Br)cc1S(=O)(=O)Nc1cncc(C(=O)Oc2ccccc2)c1", "note": "[Example IV-5, Phenyl 5-(5-bromo-2-methoxyphenylsulfonamido)nicotinate]", "IC50": "< 100"},
      {"smiles": "CCOC(=O)c1cncc(NS(=O)(=O)c2cc(Cl)ccc2OC)c1", "note": "[Example IV-7, Ethyl 5-(5-chloro-2-methoxyphenylsulfonamido)nicotinate]", "IC50": "< 100"},
      {"smiles": "CCCOC(=O)c1cncc(NS(=O)(=O)c2cc(Cl)ccc2OC)c1", "note": "[Example IV-8, Propyl 5-(5-chloro-2-methoxyphenylsulfonamido)nicotinate]", "IC50": "< 100"},
      {"smiles": "COc1ccc(Cl)cc1S(=O)(=O)Nc1cncc(C(=O)OC2CCCCC2)c1", "note": "[Example IV-9, Cyclohexyl 5-(5-chloro-2-methoxyphenylsulfonamido)nicotinate]", "IC50": "< 100"},
      {"smiles": "COc1ccc(Cl)cc1S(=O)(=O)Nc1cncc(C(=O)Oc2ccccc2)c1", "note": "[Example IV-10, Phenyl 5-(5-chloro-2-methoxyphenylsulfonamido)nicotinate]", "IC50": "< 100"},
      {"smiles": "COC(=O)c1cncc(NS(=O)(=O)c2cc(OC)ccc2OC)c1", "note": "[Example IV-11, Methyl 5-(2,5-dimethoxyphenylsulfonamido)nicotinate]", "IC50": "< 100"},
      {"smiles": "CCOC(=O)c1cncc(NS(=O)(=O)c2cc(OC)ccc2OC)c1", "note": "[Example IV-12, Ethyl 5-(2,5-dimethoxyphenylsulfonamido)nicotinate]", "IC50": "< 100"},
      {"smiles": "CCCOC(=O)c1cncc(NS(=O)(=O)c2cc(OC)ccc2OC)c1", "note": "[Example IV-13, Propyl 5-(2,5-dimethoxyphenylsulfonamido)nicotinate]", "IC50": "< 100"},
      {"smiles": "COc1ccc(OC)c(S(=O)(=O)Nc2cncc(C(=O)OC3CCCCC3)c2)c1", "note": "[Example IV-14, Cyclohexyl 5-(2,5-dimethoxyphenylsulfonamido)nicotinate]", "IC50": "< 100"},
      {"smiles": "COc1ccc(OC)c(S(=O)(=O)Nc2cncc(C(=O)Oc3ccccc3)c2)c1", "note": "[Example IV-15, Phenyl 5-(2,5-dimethoxyphenylsulfonamido)nicotinate]", "IC50": "< 100"},
      {"smiles": "CNC(=O)c1cncc(NS(=O)(=O)c2cc(Br)ccc2OC)c1", "note": "[Example IV-16, 5-(5-Bromo-2-methoxyphenylsulfonamido)-N-methylnicotinamide]", "IC50": "100 to 1000"},
      {"smiles": "CCNC(=O)c1cncc(NS(=O)(=O)c2cc(Br)ccc2OC)c1", "note": "[Example IV-18, 5-(5-Bromo-2-methoxyphenylsulfonamido)-N-ethylnicotinamide]", "IC50": "100 to 1000"},
      {"smiles": "CCCNC(=O)c1cncc(NS(=O)(=O)c2cc(Br)ccc2OC)c1", "note": "[Example IV-19, 5-(5-Bromo-2-methoxyphenylsulfonamido)-N-propylnicotinamide]", "IC50": "100 to 1000"},
      {"smiles": "COc1ccc(Br)cc1S(=O)(=O)Nc1cncc(C(=O)NC2CCCCC2)c1", "note": "[Example IV-20, 5-(5-Bromo-2-methoxyphenylsulfonamido)-N-cyclohexylnicotinamide]", "IC50": "< 100"}
    ]}
  ]
}
